The values that follow come from patent US20130345218A1 (Vertex Pharmaceuticals Incorporated, priority 2010, published 2013).

Read-outs that look alike come from different tables or passages of the source.

In assay [1] the test system is influenza A virus (A/PR/8/34) minus-strand viral RNA. Nature of the assay: microbe, parasite or virus in culture. The assay is classed as cell-based. The settings on record: mean EC50 (mean all), viral RNA by bDNA, read-out: bDNA EC50.
The test system of assay [2] is influenza A virus (A/PR/8/34). Nature of the assay: microbe, parasite or virus in culture. The assay is classed as cell-based. The settings on record: mean IC50 (mean all), MDCK cells, A/PR/8/34, 72 hours, read-out: Flu, MDCK IC50.
[3] abbreviates: Influenza A virus, PR/8, MDCK, 72 h.

As a reminder, the EC50 is the concentration at which the effect is half-maximal. Usually IC50 stands for the point on the concentration scale where inhibition reaches its midpoint. On to “3-(2-(5-fluoro-1H-pyrrolo[2,3-b]pyridin-3-yl)pyridin-4-ylamino)bicyclo[2.2.2]octane-2-carboxylic acid [Compound I-49]”, for which the EC50 in assay [1] is less than 3.3 µM. In addition, in assay [2], the IC50 is less than 3.3 µM.

Turning to `N#Cc1cc(F)c(N[C@H]2CCC[C@@H](NC(=O)N3CC[C@H](F)C3)C2)nc1-c1c[nH]c2ncc(F)cc12` [Compound I-43, (S)—N-((1R,3S)-3-((5-cyano-3-fluoro-6-(5-fluoro-1H-pyrrolo[2,3-b]pyridin-3-yl)pyridin-2-yl)amino)cyclohexyl)-3-fluoropyrrolidine-1-carboxamide], in assay [1] (Influenza A virus, PR/8), the concentration giving a half-maximal response (EC50) is less than 3.3 µM. Besides, the IC50 in assay [2] (setting [3]) was less than 3.3 µM.

As to `N#Cc1cc(F)c(N[C@H]2CCC[C@@H](NC(=O)N3CC[C@@H](F)C3)C2)nc1-c1c[nH]c2ncc(F)cc12` [Compound I-14, (R)—N-((1R,3S)-3-((5-cyano-3-fluoro-6-(5-fluoro-1H-pyrrolo[2,3-b]pyridin-3-yl)pyridin-2-yl)amino)cyclohexyl)-3-fluoropyrrolidine-1-carboxamide], in assay [1] (Influenza A virus, PR/8), the EC50 is less than 3.3 µM. The IC50 in assay [2] (setting [3]) is less than 3.3 µM.

As to `O=C(O)[C@@H]1C2CCC(CC2)[C@H]1Nc1nc(-c2c[nH]c3ncc(Cl)cc23)c(F)cc1F` [Compound I-32], the EC50 in assay [1] (Influenza A virus, PR/8) is less than 3.3 µM. For the same compound, the IC50 in assay [2] (setting [3]) is less than 3.3 µM.

For the compound `O=C(O)C1C2CCC(CC2)C1Nc1cnnc(-c2c[nH]c3ncc(F)cc23)n1` (racemic) [Compound I-42, (+/−)-3-[[3-(5-fluoro-1H-pyrrolo[2,3-b]pyridin-3-yl)-1,2,4-triazin-5-yl]amino]bicyclo[2.2.2]octane-2-carboxylic acid], the EC50 in assay [1] (Influenza A virus, PR/8) is less than 3.3 µM. For the same compound, the IC50 in assay [2] (setting [3]) is less than 3.3 µM.

Regarding `O=C(N[C@@H]1CCC[C@H](Nc2nc(-c3c[nH]c4ncc(F)cc34)c(F)cc2F)C1)c1csc(Cl)c1` [Compound I-48, 5-chloro-N-((1R,3S)-3-((3,5-difluoro-6-(5-fluoro-1H-pyrrolo[2,3-b]pyridin-3-yl)pyridin-2-yl)amino)cyclohexyl)thiophene-3-carboxamide], in assay [1] (Influenza A virus, PR/8), the EC50 is less than 3.3 µM. For the same compound, the IC50 in assay [2] (setting [3]) is less than 3.3 µM.

As for `N#Cc1cc(F)c(N[C@H]2C3CCC(CC3)[C@@H]2C(=O)O)nc1-c1c[nH]c2ncc(F)cc12` (racemic) [Compound I-30], the EC50 in assay [1] (Influenza A virus, PR/8) was less than 3.3 µM. Also, the IC50 in assay [2] (setting [3]) was less than 3.3 µM.

Regarding `N#Cc1cnc(N[C@@H]2CCC[C@H](NC(=O)C3CC3)C2)nc1-c1c[nH]c2ncc(C(F)(F)F)cc12` (stereo in doubt) [Compound I-10, N-((1S,3R)-3-((5-cyano-4-(5-(trifluoromethyl)-1H-pyrrolo[2,3-b]pyridin-3-yl)pyrimidin-2-yl)amino)cyclohexyl)cyclopropanecarboxamide], the EC50 in assay [1] (Influenza A virus, PR/8) is less than 3.3 µM. In assay [2] (setting [3]), the IC50 is less than 3.3 µM.

On to `CC[C@]1(C(=O)O)CCCC[C@@H]1Nc1ncc(C#N)c(-c2c[nH]c3ncc(C(F)(F)F)cc23)n1` [Compound I-8, (1S,2S)-2-((5-cyano-4-(5-(trifluoromethyl)-1H-pyrrolo[2,3-b]pyridin-3-yl)pyrimidin-2-yl)amino)-1-ethylcyclohexanecarboxylic acid], for which, in assay [1] (Influenza A virus, PR/8), the EC50 was less than 3.3 µM. Besides, the IC50 in assay [2] (setting [3]) is less than 3.3 µM.

Take `O=C(O)[C@@H]1C2CCC(CC2)[C@H]1Nc1nc(-c2c[nH]c3ncc(F)cc23)c(F)cc1F` [Compound I-26]: the EC50 in assay [1] (Influenza A virus, PR/8) is less than 3.3 µM. Further, the IC50 in assay [2] (setting [3]) was less than 3.3 µM.

Regarding `N#Cc1cnc(N[C@@H]2C3CCC(CC3)[C@H]2C(=O)O)nc1-c1c[nH]c2ncc(C(F)(F)F)cc12` (racemic) [Compound I-39, (+/−)-trans 3-((5-cyano-4-(5-(trifluoromethyl)-1H-pyrrolo[2,3-b]pyridin-3-yl)pyrimidin-2-yl)amino)bicyclo[2.2.2]octane-2-carboxylic acid], the EC50 in assay [1] (Influenza A virus, PR/8) is less than 3.3 µM. The IC50 in assay [2] (setting [3]) is less than 3.3 µM.

For the compound `O=C(O)[C@H]1C2CCC(CC2)[C@@H]1Nc1cnnc(-c2c[nH]c3ncc(F)cc23)n1` [Compound I-46], in assay [1] (Influenza A virus, PR/8), the EC50 was less than 3.3 µM. In addition, the IC50 in assay [2] (setting [3]) is less than 3.3 µM.

In the case of `O=C(O)[C@H]1C2CCC(CC2)[C@@H]1Nc1cc(C(F)(F)F)cc(-c2c[nH]c3ncc(F)cc23)n1` [Compound I-40], the EC50 in assay [1] (Influenza A virus, PR/8) is less than 3.3 µM. Moreover, in assay [2] (setting [3]), the IC50 was less than 3.3 µM.

With `N#Cc1cc(F)c(N[C@H]2CCC[C@@H](NC(=O)N3CCOCC3)C2)nc1-c1c[nH]c2ncc(F)cc12` [Compound I-12, N-((1R,3S)-3-((5-cyano-3-fluoro-6-(5-fluoro-1H-pyrrolo[2,3-b]pyridin-3-yl)pyridin-2-yl)amino)cyclohexyl)morpholine-4-carboxamide], the EC50 in assay [1] (Influenza A virus, PR/8) was less than 3.3 µM. The IC50 in assay [2] (setting [3]) is less than 3.3 µM.

As for `O=C(O)[C@H]1C2CCC(CC2)[C@@H]1Nc1cc(-c2c[nH]c3ncc(F)cc23)ncc1F` (racemic) [Compound I-50, (+/−)-(2,3)-trans-3-((5-fluoro-2-(5-fluoro-1H-pyrrolo[2,3-b]pyridin-3-yl)pyridin-4-yl)amino)bicyclo[2.2.2]octane-2-carboxylic acid], in assay [1] (Influenza A virus, PR/8), the concentration for a half-maximal effect (EC50) is less than 3.3 µM. In addition, the IC50 in assay [2] (setting [3]) is less than 3.3 µM.

Turning to `O=C(N[C@H]1CCC[C@@H](Nc2nc(-c3c[nH]c4ncc(F)cc34)c(C(F)(F)F)cc2F)C1)N1CCOCC1` [Compound I-21], the EC50 in assay [1] (Influenza A virus, PR/8) is less than 3.3 µM. The IC50 in assay [2] (setting [3]) is less than 3.3 µM.

As for `O=C(O)[C@H]1C2CCC(CC2)[C@@H]1Nc1cncc(-c2c[nH]c3ncc(F)cc23)n1` (mixture of isomers) [Compound I-38], in assay [1] (Influenza A virus, PR/8), the EC50 is less than 3.3 µM. Also, in assay [2] (setting [3]), the IC50 is less than 3.3 µM.

As for `O=C(O)[C@H]1C2CCC(CC2)[C@@H]1Nc1cc(C(F)(F)F)cc(-c2c[nH]c3ncc(F)cc23)n1` (racemic) [Compound I-37, (+/−)-trans-3-((6-(5-fluoro-1H-pyrrolo[2,3-b]pyridin-3-yl)-4-(trifluoro-methyl)pyridin-2-yl)amino)bicyclo[2.2.2]octane-2-carboxylic acid], in assay [1] (Influenza A virus, PR/8), the EC50 is less than 3.3 µM. Further, in assay [2] (setting [3]), the IC50 was less than 3.3 µM.

Turning to `NC(=O)c1cc(F)c(N[C@H]2CCC[C@@H](NC(=O)N3CCOCC3)C2)nc1-c1c[nH]c2ncc(F)cc12` [Compound I-13, N-((1R,3S)-3-((5-carbamoyl-3-fluoro-6-(5-fluoro-1H-pyrrolo[2,3-b]pyridin-3-yl)pyridin-2-yl)amino)cyclohexyl)morpholine-4-carboxamide], the EC50 in assay [1] (Influenza A virus, PR/8) was less than 3.3 µM. Besides, the IC50 in assay [2] (setting [3]) is less than 3.3 µM.

Consider `N#Cc1cnc(N[C@H]2CCCC[C@@H]2C(=O)O)nc1-c1c[nH]c2ncc(C(F)(F)F)cc12` [Compound I-7, (1S,2S)-2-((5-cyano-4-(5-(trifluoromethyl)-1H-pyrrolo[2,3-b]pyridin-3-yl)pyrimidin-2-yl)amino)cyclohexanecarboxylic acid], for which the EC50 in assay [1] (Influenza A virus, PR/8) was less than 3.3 µM. Also, the concentration for half-maximal inhibition (IC50) in assay [2] (setting [3]) was less than 3.3 µM.

In the case of `COCC(=O)N[C@@H]1CCC[C@H](Nc2ncc(C#N)c(-c3c[nH]c4ncc(C(F)(F)F)cc34)n2)C1` [Compound I-9, N-((1R,3S)-3-((5-cyano-4-(5-(trifluoromethyl)-1H-pyrrolo[2,3-b]pyridin-3-yl)pyrimidin-2-yl)amino)cyclohexyl)-2-methoxyacetamide], the EC50 in assay [1] (Influenza A virus, PR/8) is less than 3.3 µM. Besides, in assay [2] (setting [3]), the IC50 is less than 3.3 µM.

For `O=C(O)[C@@H]1C2CCC(CC2)[C@H]1Nc1cc(C(F)(F)F)cc(-c2c[nH]c3ncc(F)cc23)n1` [Compound I-41], the half-maximal effective concentration (EC50) in assay [1] (Influenza A virus, PR/8) was less than 3.3 µM. The IC50 in assay [2] (setting [3]) was less than 3.3 µM.

`O=C(N[C@@H]1CCC[C@H](Nc2nc(-c3c[nH]c4ncc(F)cc34)c(C(F)(F)F)cc2F)C1)N1CCOCC1` [Compound I-22, N-[(1R,3S)-3-[[3-fluoro-6-(5-fluoro-1H-pyrrolo[2,3-b]pyridin-3-yl)-5-(trifluoro-methyl)-2-pyridyl]amino]cyclohexyl]morpholine-4-carboxamide]: the EC50 in assay [1] (Influenza A virus, PR/8) was less than 3.3 µM. Further, the IC50 in assay [2] (setting [3]) is less than 3.3 µM.

Consider `O=C(O)[C@H]1C2CCC(CC2)[C@@H]1Nc1ncc(F)c(-c2c[nH]c3ncc(F)cc23)n1` (racemic) [Compound I-29, (+/−) trans-3-((5-fluoro-4-(5-fluoro-1H-pyrrolo[2,3-b]pyridin-3-yl)pyrimidin-2-yl)amino)bicyclo[2.2.2]octane-2-carboxylic acid], for which the EC50 in assay [1] (Influenza A virus, PR/8) is less than 3.3 µM. Also, in assay [2] (setting [3]), the IC50 is less than 3.3 µM.

As to `O=C(N[C@@H]1CCC[C@H](Nc2nc(-c3c[nH]c4ncc(F)cc34)c(F)cc2F)C1)N1CCC(F)(F)C1` [Compound I-25, N-((1R,3S)-3-((3,5-difluoro-6-(5-fluoro-1H-pyrrolo[2,3-b]pyridin-3-yl)pyridin-2-yl)-amino)cyclohexyl)-3,3-difluoropyrrolidine-1-carboxamide], the concentration for a half-maximal effect (EC50) in assay [1] (Influenza A virus, PR/8) was less than 3.3 µM. Further, the IC50 in assay [2] (setting [3]) was less than 3.3 µM.

Regarding `COC(=O)[C@@H]1C2CCC(CC2)[C@H]1Nc1nc(-c2c[nH]c3ncc(Cl)cc23)c(F)cc1F` [Compound I-31], the EC50 in assay [1] (Influenza A virus, PR/8) was greater than 3.3 µM. Besides, the IC50 in assay [2] (setting [3]) is no less than 3.3 µM.

Regarding `O=C(N[C@@H]1CCC[C@H](Nc2nc(-c3c[nH]c4ncc(F)cc34)c(F)cc2F)C1)c1ccsc1` [Compound I-47, N-((1R,3S)-3-((3,5-difluoro-6-(5-fluoro-1H-pyrrolo[2,3-b]pyridin-3-yl)pyridin-2-yl)amino)cyclohexyl)thiophene-3-carboxamide], in assay [1] (Influenza A virus, PR/8), the EC50 was less than 3.3 µM. Also, in assay [2] (setting [3]), the IC50 was less than 3.3 µM.

Turning to `N#Cc1cnc(N[C@H]2CCC[C@@H](C(=O)O)C2)nc1-c1c[nH]c2ncc(Cl)cc12` [Compound I-3, (1R,3S)-3-((4-(5-chloro-1H-pyrrolo[2,3-b]pyridin-3-yl)-5-cyanopyrimidine-2-yl)amino)-cyclohexanecarboxylic acid], the EC50 in assay [1] (Influenza A virus, PR/8) is less than 3.3 µM. Moreover, the IC50 in assay [2] (setting [3]) is less than 3.3 µM.
